Target: T1, human GPBAR1 receptor (Homo sapiens, UniProt Q8TDU6)
T1 construct: expressed in transfected cells
T1 sequence (Q8TDU6 1-330): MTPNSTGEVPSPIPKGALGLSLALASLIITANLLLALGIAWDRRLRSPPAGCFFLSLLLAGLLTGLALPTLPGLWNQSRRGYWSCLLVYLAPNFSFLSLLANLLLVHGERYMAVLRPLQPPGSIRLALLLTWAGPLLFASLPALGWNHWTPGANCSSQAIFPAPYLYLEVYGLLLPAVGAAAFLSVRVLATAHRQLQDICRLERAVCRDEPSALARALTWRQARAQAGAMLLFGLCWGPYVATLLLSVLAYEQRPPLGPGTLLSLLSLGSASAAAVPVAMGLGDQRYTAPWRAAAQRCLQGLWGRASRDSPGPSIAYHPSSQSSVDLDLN
Experiment: functional cAMP assay in CHO-dhfr(minus) cells expressing human GPBAR1 receptors
Type: cell-based
Conditions: human EC50, functional cAMP assay, 30 min at 30° C.
Experimental: The final clone was verified by DNA sequence analysis. The plasmid was transfected into CHO cells deficient in dihydrofolate reductase activity (CHO-dhfr−) using Lipofectamine plus (Invitrogen). Clones were isolated in limited dilution conditions and identified by activities in the cAMP assay using lithocholic acid as agonist.
The growth medium was exchanged with Krebs Ringer Bicarbonate buffer with 1 mM IBMX and incubated at 30° C. for 30 min. Compounds were added to a final assay volume of 100 μl and incubated for 30 min at 30° C. […] The time-resolved energy transfer is measured by a TRF reader (Evotec Technologies GmbH, Hamburg Germany), equipped with a ND:YAG laser as excitation source.
EC50 values were determined using Activity Base analysis (ID Business Solution, Limited). […] Specificity for GPBAR1 was tested in non-transfected CHO cells in the same assay as above.

| Structure (SMILES) | EC50 [nM] |
| --- | --- |
| Cc1cc(/C(C[C@H](c2ccc(-c3ccc(C(=O)O)c(Cl)c3)cc2)c2ccc(Cl)cc2F)=N/O)ccn1 [Example 452, (−)-3-Chloro-4′-[1-(4-chloro-2-fluoro-phenyl)-3-[(E)-hydroxyimino]-3-(2-methyl-pyridin-4-yl)-propyl]-biphenyl-4-carboxylic acid] | 15 |
| Cc1ccccc1C(C/C(=N\O)c1cc(Cl)ccc1Cl)c1ccc(Br)cc1 (single isomer, unassigned; (+)) [Example 50, (+)-(E)-3-(4-Bromo-phenyl)-1-(2,5-dichloro-phenyl)-3-o-tolyl-propan-1-one oxime] | 769 |
| Cc1cc(Cl)ccc1[C@H](C/C(Cc1ccccn1)=N\O)c1ccc(Br)cc1 [Example 362, (E,R)-4-(4-bromo-phenyl)-4-(4-chloro-2-methyl-phenyl)-1-pyridin-2-yl-butan-2-one oxime] | 2000 |
| Cc1cc(F)ccc1C(C/C(=N\O)c1ccc(=O)n(C)c1)c1ccc(-c2ccc(NC(=O)CCC(=O)O)cc2)cc1 (stereo not shown) [Example 392, N-{4′-[1-(4-Fluoro-2-methyl-phenyl)-3-[(E)-hydroxyimino]-3-(1-methyl-6-oxo-1,6-dihydro-pyridin-3-yl)-propyl]-biphenyl-4-yl}-succinamic acid] | 54 |
| Cc1cc(Cl)ccc1C(C/C(=N\O)c1ccc(=O)n(C)c1)c1ccc(C(=O)NCCO)cc1 (stereo not shown) [Example 332, (E)-4-(1-(4-Chloro-2-methylphenyl)-3-(hydroxyimino)-3-(1-methyl-6-oxo-1,6-dihydropyridin-3-yl)propyl)-N-(2-hydroxyethyl)benzamide] | 129 |
| Cc1ccc(C(CC(=NO)c2ccncc2)c2ccc(N(C)C)cc2)cc1C (racemic) [Example 17, 3-(4-Dimethylamino-phenyl)-3-(3,4-dimethyl-phenyl)-1-pyridin-4-yl-propan-1-one oxime] | 380 |
| Cc1ccccc1C(CC(=NO)c1ccncc1)c1cccc(-c2cccc(S(C)(=O)=O)c2)c1 (racemic) [Example 30, 3-(3′-Methanesulfonyl-biphenyl-3-yl)-1-pyridin-4-yl-3-o-tolyl-propan-1-one oxime] | 181 |
| CNS(=O)(=O)c1ccc(-c2ccc(C(C/C(=N\O)c3ccncc3)c3ccccc3)cc2)cc1 (stereo not shown) [Example 21, 4′-{3-[(E)-Hydroxyimino]-1-phenyl-3-pyridin-4-yl-propyl}-biphenyl-4-sulfonic acid methylamide] | 303 |
| CCN(CC)c1ccc(C(CC(=NO)c2ccncc2)c2ccccc2C)cc1 (racemic) [Example 42, 3-(4-Diethylamino-phenyl)-1-pyridin-4-yl-3-o-tolyl-propan-1-one oxime] | 156 |
| Cn1cc(/C(CC(c2ccc(Br)cc2)c2ccc(F)cc2S(C)(=O)=O)=N/O)ccc1=O (stereo not shown) [Example 409, (E)-5-{3-(4-Bromo-phenyl)-3-(4-fluoro-2-methanesulfonyl-phenyl)-1-(hydroxyimino)-propyl}-1-methyl-1H-pyridin-2-one] | 210 |
| Cc1cc(C(C=C(c2ccccc2)c2ccccc2)=NO)cc(C)n1 (mixture of isomers) [Example 66, 1-(2,6-Dimethyl-pyridin-4-yl)-3,3-diphenyl-propenone oxime] | 300 |
| COC(=O)CC(=O)Nc1ccc(-c2ccc(C(C/C(=N\O)c3ccc(=O)n(C)c3)c3ccc(F)cc3C)cc2)cc1 (stereo not shown) [Example 399, N-{4′-[1-(4-Fluoro-2-methyl-phenyl)-3-[(E)-hydroxyimino]-3-(1-methyl-6-oxo-1,6-dihydro-pyridin-3-yl)-propyl]-biphenyl-4-yl}-malonamic acid methyl ester] | 165 |
| Cc1cc(Cl)ccc1C(C/C(=N\O)c1ccc(=O)n(CCC(=O)O)c1)c1ccc(S(C)(=O)=O)cc1 (stereo not shown) [Example 345, (E)-3-(5-(3-(4-Chloro-2-methylphenyl)-1-(hydroxyimino)-3-(4-(methylsulfonyl)phenyl)-propyl)-2-oxopyridin-1(2H)-yl)propanoic acid] | > 10000 |

From patent US8765730B2 (Hoffmann-La Roche Inc, priority 2010, dated 2014)
